Data reported in article PMC5187537, “Antioxidant Activity of Oat Proteins Derived Peptides in Stressed Hepatic HepG2 Cells” (Antioxidants, 2016).
Peptide text beside a SMILES is read from it.

Columns and labels:
[1] = test system: catalase (CAT); assay: Catalase activity of lysates of AAPH-stressed cells; assay type: cell-based, Human; details: then AAPH 24 h; for Further increase of CAT activity compared to PC cells: 50 µM peptide 24 h
Protocol: Cells were seeded at 1 × 10^6 cells/plate in 60 mm tissue culture plates and allowed to grow for 24 h. In each plate, cells were washed twice with 4 mL of PBS (pH 7.2), and treated with 4 mL peptide samples (P1, P2, P6, P7) dissolved in culture media at 50 or 100 µM for 24 h. After removal of peptide solutions, cells were washed twice with 4 mL of PBS/plate and treated with 4 mL of […] dissolved in culture media and allowed to incubate for 24 h. Cells in each culture plate were harvested by incubation (5 min) with 0.5 mL of 0.25% trypsin, addition of 1 mL of culture media and centrifugation at 1000× g for 5 min. Cell pellets were washed with ice cold PBS (500 µL each) until no pink color was observed, re-suspended in ice cold PBS (300 µL) for the superoxide dismutase (SOD) assay, 500 µL for glutathione peroxidase (GPx) and catalase (CAT) assays. For total glutathione assay, 300 µL of 5% ice cold sulfosalicylic acid bubbled with 100% nitrogen was used for cell lysis. Cells were lysed by sonication on ice for 1 min using a probe-type sonicator (Vibra-Cell, Sonics and Materials Inc., Newtown, CT, USA) pulsing at 15 s on and 10 s off cycles. Following centrifugation of cell lysate at 13,000× g (4 °C), pellets containing cell debris were discarded, while supernatants were used for determination of glutathione content. Protein contents were determined using a modified Lowry assay. To measure the catalase activity, 1790 µL potassium phosphate buffer (50 mM, pH 7.0) was mixed with 200 µL cell lysate in a UV cuvette. Ten µL of H2O2 (30%) was added, and removal of H2O2 by catalase was followed at 240 nm using a Cary 50 Bio UV-Vis spectrophotometer with 18-cell changer (Varian Inc., Mississauga, ON, Canada). The activity was expressed as a percentage of control.

[2] = test system: HepG2 cells; assay: MTT cytotoxicity assay; assay type: cell-based, Human; details: 24 h
Protocol: Human hepatocellular carcinoma (HepG2) cells were purchased from the American Type Culture Collection (ATCC; Manassas, VA, USA). They were cultured at 37 °C in a humidified incubator with 5% CO2 and 95% air. Dulbecco’s Minimal Essential Media (DMEM) supplemented with 10% (v/v) Fetal Bovine Serum was used for the maintenance of cells. […] The MTT (3-(4,5-dimethylthiazol-2-yl)-2,5-diphenyltetrazolium bromide) assay, as described in an earlier research, was used for cytotoxicity and cytoprotective tests. […] Following another 24 h incubation, cells were washed twice with 200 µL of PBS. Ten µL of MTT solution (5 mg/mL in PBS) and 100 µL of media were added to each well. After 1 h, MTT solution was removed, and 50 µL DMSO were added. Absorbances were recorded at 570 nm with 630 nm background subtraction using a BioTek Epoch™ microplate reader (Fisher Scientific, Nepean, ON, Canada). Untreated cells were used as negative control (NC) and cells treated with only AAPH were used as positive control (PC).

[3] = Oxygen radical absorbance capacity (ORAC) assay; details: fluorescein 0.08 µM, AAPH 150 mM, 37 °C, 50 min, potassium phosphate buffer pH 7.4 75 mM, peptides 100 and 200 µM; triplicate, mean ± STDEV
Protocol: The ORAC assay was performed as previously described. The decay of fluorescein (0.08 µM) by AAPH (150 mM) at 37 °C was recorded at 1 min intervals over 50 min using a BioTek™ FL × 800™ fluorescent microplate reader (Fisher Scientific, Nepean, ON, Canada) with fluorescence filters (excitation 485/20 nm, emission 528/20 nm). Potassium phosphate buffer (pH 7.4, 75 mM) was used to dissolve peptides (100 and 200 µM) and Trolox standards (6.25–100 µM). Data analysis was done with Gen5^TM software (Fisher Scientific, Nepean, ON, Canada), and ORAC values were expressed as µM Trolox Equivalent (TE)/µM peptide using the standard curve.

[4] = test system: intracellular ROS of HepG2 cells; assay: Intracellular reactive oxygen species, DCFH2-DA assay; assay type: cell-based, Human; details: 100 µM peptide 24 h, then 20 mM AAPH 24 h, 40 µM DCFH2-DA, fluorescence 60 min
Protocol: The measurement of intracellular ROS was determined using a method described by Wolfe and Rui, with modifications. HepG2 cells were seeded at 4 × 10^4 cells/well in a 96-well tissue culture plate and were treated for 24 h with 100 µM of peptide dissolved in media, with the exception of NC and PC controls. Media was removed, cells washed twice with PBS, incubated (24 h) with 20 mM AAPH and washed again with PBS. Two hundred µL of 40 µM DCFH2-DA dissolved in buffer was added, and fluorescent intensity was immediately recorded at 2 min intervals for a total of 60 min. The percentage increase in fluorescent intensity was calculated as shown in Equation (1). (1) Fluorescent increase (%)=Final reading−Initial reading/Initial reading×100

CC[C@H](C)[C@H](NC(=O)[C@H](Cc1ccc(O)cc1)NC(=O)[C@@H](NC(=O)[C@H](CC(C)C)NC(=O)CNC(=O)[C@@H]1CCCN1C(=O)[C@H](C)NC(=O)[C@H](CC(N)=O)NC(=O)[C@H](Cc1c[nH]cn1)NC(=O)[C@@H](N)Cc1ccc(O)cc1)C(C)C)C(=O)N[C@@H](CC(C)C)C(=O)O [P6] (H-YHNAPGLVYIL-OH; N-terminus and C-terminus assumed)
Further increase of CAT activity compared to PC cells [1]: 60%
Effect on HepG2 cell viability compared to NC ([2]; 50 and 100 µM peptide, MTT, p > 0.05): did not affect HepG2 cells viability
ORAC value (peroxyl radical scavenging activity) [3]: 0.14–0.61 µM TE/µM
Intracellular reactive oxygen species [4]: reduced production of intracellular reactive oxygen species

CC[C@H](C)[C@H](NC(=O)[C@H](Cc1ccc(O)cc1)NC(=O)[C@@H](NC(=O)[C@H](CC(C)C)NC(=O)CN)C(C)C)C(=O)N[C@@H](CC(C)C)C(=O)O [P2] (H-GLVYIL-OH; N-terminus and C-terminus assumed)
Further increase of CAT activity compared to PC cells [1]: 60%
Effect on CAT activity ([1]; 100 µM peptide 24 h): almost doubled
Increase in cell viability (growth promotion) ([2]; peptide alone, no AAPH, MTT (Figure 2A)): ~2.7 fold
Concentration above which cytotoxic ([2]; tested at 20–500 µM, MTT): above 450 µM
ORAC value (peroxyl radical scavenging activity) [3]: 0.67 ± 0.02 µM TE/µM
Intracellular reactive oxygen species [4]: reduced production of intracellular reactive oxygen species
